From patent US20220204489A1, “ARYLSULFONYLTHIOPHENECARBOXAMIDES AND ARYLSULFONYLFURANCARBOXAMIDES AS Kv3 POTASSIUM CHANNEL ACTIVATORS” (H. Lundbeck A/S, priority 2019, published 2022)

Target: T1, hKv3.1b (Homo sapiens, UniProt P48547)
T1 construct: expressed in transfected cells
T1 sequence (P48547 1-585 isoform P48547-2): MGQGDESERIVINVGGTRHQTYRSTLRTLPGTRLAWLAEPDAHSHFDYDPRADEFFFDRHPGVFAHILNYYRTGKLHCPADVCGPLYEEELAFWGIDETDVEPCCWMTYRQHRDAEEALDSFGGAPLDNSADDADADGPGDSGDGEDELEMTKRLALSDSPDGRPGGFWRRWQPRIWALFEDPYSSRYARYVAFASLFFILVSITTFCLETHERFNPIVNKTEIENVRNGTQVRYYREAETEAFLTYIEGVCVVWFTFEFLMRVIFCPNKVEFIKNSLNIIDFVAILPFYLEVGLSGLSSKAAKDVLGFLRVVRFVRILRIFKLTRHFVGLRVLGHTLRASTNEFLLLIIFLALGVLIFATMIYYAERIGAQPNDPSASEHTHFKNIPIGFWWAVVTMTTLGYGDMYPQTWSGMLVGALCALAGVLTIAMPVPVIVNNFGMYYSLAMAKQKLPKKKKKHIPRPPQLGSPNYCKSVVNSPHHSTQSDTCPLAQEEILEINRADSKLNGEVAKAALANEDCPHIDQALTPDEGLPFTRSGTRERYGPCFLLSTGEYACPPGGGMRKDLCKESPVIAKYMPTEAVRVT
Assay: QPatch automated whole-cell patch-clamp, shift of voltage threshold for channel activation
Assay type: cell-based
Conditions: HEK-293 cells stably expressing hKv3.1b; for ECdelta5mV: concentration needed to shift the threshold 5 mV, read from fitted concentration response curve; for Max threshold shift: maximum absolute shift of activation threshold to more hyperpolarized potentials at tested concentrations (0.37, 1.11, 3.33, 10, 30 μM)
Experimental: HEK-293 cells stably expressing hKv3.1b was used for the experiments. Cells were cultured in DMEM medium supplemented with 10% Fetal Bovine Serum, 100 ug/mL Geneticidin and 100 u/mL Penicillin/Streptomycin (all from Gibco). Cells were grown to 80-90% confluency at 37° C. and 5% CO2. On the day of the experiment the cells were detached from the tissue culture flasks by Detachin and resuspended in serum free medium containing 25 mM HEPES and transferred to the cell hotel of the QPatch. The cells were used for experiments 0-5 hours after detachment.
Patch-clamp recordings were performed using the automated recording system QPatch-16× (Sophion Bioscience, Denmark). Cells were centrifuged, SFM removed and the cells were resuspended in extracellular buffer containing (in mM): 145 NaCl, 4 KCl, 1 MgCl2, 2 CaCl2, 10 HEPES and 10 glucose (added fresh on the day of experiment); pH 7.4 adjusted with NaOH, 305 mOsm adjusted with sucrose.
Single cell whole-cell recordings were carried out using an intracellular solution containing (in mM): 120 KCl, 32.25/10 KOH/EGTA, 5.374 CaCl2, 1.75 MgCl2, 10 HEPES, 4 Na2ATP (added fresh on the day), pH 7.2 adjusted with KOH, 395 mOsm adjusted with sucrose. Cell membrane potentials were held at −80 mV and currents were evoked by voltage steps (200 ms duration) from −70 mV to +10 mV (in 10 mV increments). Vehicle (0.33% DMSO) or increasing concentration of compound (1) were applied and the voltage protocol was run 3 times (resulting in 3 min cpd incubation time). Five increasing concentrations of compound (1) were applied to each cell.
Leak subtraction protocol was applied at −33% of the sweep amplitude, and serial resistance values were constantly monitored.
Any cell where serial resistance exceeded 25 MOhm, membrane resistance less than 200 MOhm or current size at −10 mV less than 200 pA was eliminated from the subsequent analysis.
Data analysis was performed using Sophion's QPatch assay software in combination with Microsoft Excel™ (Redmond, Wash., USA).
Current voltage relationships were plotted from the peak current at the individual voltage steps normalized to the vehicle addition at 10 mV. The voltage threshold for channel activation was defined as 5% activation of the peak current at 10 mV in presence of vehicle. The activity of the compounds was described as the ability to shift this current voltage relationship to more hyperpolarized potentials and is given as the maximum absolute shift possible at the tested concentrations (0.37, 1.11, 3.33, 10, 30 μM). Concentration response curves were plotted from the threshold shift at the individual concentrations and were fitted excel fit model 205 sigmodal dose-response model (fit=A+((B−A)/1+((C/x)^D)))), where A is the minimum value, B the maximum value, C the EC50 value and D the slope of the curve. The concentration needed to shift the threshold 5 mV was readout from this curve (ECdelta5 mV).

Structure (SMILES)	ECdelta5mV [nM]	Max threshold shift [mV]
Cc1cnc(CNC(=O)c2ccc(S(=O)(=O)c3ccc(Cl)cc3)s2)cn1 [Compound 2, 5-(4-chlorobenzene-1-sulfonyl)-N-[(5-methylpyrazin-2-yl)methyl]thiophene-2-carboxamide]	1200	36
Cc1cnc(CNC(=O)c2ccc(S(=O)(=O)c3ccc(F)cc3)s2)cn1 [Compound 3, 5-(4-fluorobenzene-1-sulfonyl)-N-[(5-methylpyrazin-2-yl)methyl]thiophene-2-carboxamide]	2200	19
Cc1cnc(CNC(=O)c2ccc(S(=O)(=O)c3ccccc3C)s2)cn1 [Compound 4, 5-(2-methylbenzene-1-sulfonyl)-N-[(5-methylpyrazin-2-yl)methyl]thiophene-2-carboxamide]	1200	30
Cc1ccc(S(=O)(=O)c2ccc(C(=O)NCc3ccc(C)nc3)s2)cc1 [Compound 5, 5-(4-methylbenzene-1-sulfonyl)-N-[(6-methylpyridin-3-yl)methyl]thiophene-2-carboxamide]	2100	21
Cc1ccc(S(=O)(=O)c2ccc(C(=O)NCc3cccnc3)s2)cc1 [Compound 8, 5-(4-methylbenzene-1-sulfonyl)-N-[(pyridin-3-yl)methyl]thiophene-2-carboxamide]	2900	16
Cc1ccc(S(=O)(=O)c2ccc(C(=O)NCc3ccc(C)nn3)s2)cc1 [Compound 14, 5-(4-methylbenzene-1-sulfonyl)-N-[(6-methylpyridazin-3-yl)methyl]thiophene-2-carboxamide]	2000	22
COc1ccc(S(=O)(=O)c2ccc(C(=O)NCc3cnc(C)cn3)s2)cc1 [Compound 16, 5-(4-methoxybenzene-1-sulfonyl)-N-[(5-methylpyrazin-2-yl)methyl]thiophene-2-carboxamide]	1500	24
Cc1cnc(CNC(=O)c2ccc(S(=O)(=O)c3ccccc3)s2)cn1 [Compound 18, 5-(benzenesulfonyl)-N-[(5-methylpyrazin-2-yl)methyl]thiophene-2-carboxamide]	2400	17
Cc1cc(F)ccc1S(=O)(=O)c1ccc(C(=O)NCc2cnccn2)s1 [Compound 19, 5-(4-fluoro-2-methylbenzene-1-sulfonyl)-N-[(pyrazin-2-yl)methyl]thiophene-2-carboxamide]	3800	14
Cc1cnc(CNC(=O)c2ccc(S(=O)(=O)c3ccc(F)cc3C)s2)cn1 [Compound 20, 5-(4-fluoro-2-methylbenzene-1-sulfonyl)-N-[(5-methylpyrazin-2-yl)methyl]thiophene-2-carboxamide]	1900	29
Cc1cnc(CNC(=O)c2ccc(S(=O)(=O)c3ccc(C(F)F)cc3)s2)cn1 [Compound 21, 5-[4-(difluoromethyl)benzene-1-sulfonyl]-N-[(5-methylpyrazin-2-yl)methyl]thiophene-2-carboxamide]	1700	32
Cc1ccc(S(=O)(=O)c2ccc(C(=O)NCc3cnc(C)cn3)o2)cc1 [Compound 22, 5-(4-methylbenzene-1-sulfonyl)-N-[(5-methylpyrazin-2-yl)methyl]furan-2-carboxamide]	2100	27
Cc1ccc(S(=O)(=O)c2ccc(C(=O)NCc3ccn(C)n3)o2)cc1 [Compound 23, 5-(4-methylbenzene-1-sulfonyl)-N-[(1-methyl-1H-pyrazol-3-yl)methyl]furan-2-carboxamide]	2400	17
COc1ccc(S(=O)(=O)c2ccc(C(=O)NCc3cnccn3)o2)cc1 [Compound 24, 5-(4-methoxybenzene-1-sulfonyl)-N-[(pyrazin-2-yl)methyl]furan-2-carboxamide]	2700	20
Cc1ccc(S(=O)(=O)c2ccc(C(=O)NCc3cc(F)ccn3)o2)cc1 [Compound 25, N-[(4-fluoropyridin-2-yl)methyl]-5-(4-methylbenzene-1-sulfonyl)furan-2-carboxamide]	4100	15

More lines, now with the values ahead:

ECdelta5mV [nM]	Max threshold shift [mV]	Structure (SMILES)
1200	24	Cc1ccc(S(=O)(=O)c2ccc(C(=O)NCc3cnc(C)cn3)s2)cc1 [Compound 1, 5-(4-methylbenzene-1-sulfonyl)-N-[(5-methylpyrazin-2-yl)methyl]thiophene-2-carboxamide]
3100	12	Cc1ccc(S(=O)(=O)c2ccc(C(=O)NCc3ncc(C)cn3)s2)cc1 [Compound 6, 5-(4-methylbenzene-1-sulfonyl)-N-[(5-methylpyrimidin-2-yl)methyl]thiophene-2-carboxamide]
2500	17	Cc1ccc(S(=O)(=O)c2ccc(C(=O)NCc3ccn(C)n3)s2)cc1 [Compound 7, 5-(4-methylbenzene-1-sulfonyl)-N-[(1-methyl-1H-pyrazol-3-yl)methyl]thiophene-2-carboxamide]
2600	17	Cc1ccc(S(=O)(=O)c2ccc(C(=O)NCc3cnn(C)c3)s2)cc1 [Compound 9, 5-(4-methylbenzene-1-sulfonyl)-N-[(1-methyl-1H-pyrazol-4-yl)methyl]thiophene-2-carboxamide]
1200	25	Cc1ccc(S(=O)(=O)c2ccc(C(=O)NCc3cnccn3)s2)cc1 [Compound 10, 5-(4-methylbenzene-1-sulfonyl)-N-[(pyrazin-2-yl)methyl]thiophene-2-carboxamide]
2500	17	Cc1ccc(S(=O)(=O)c2ccc(C(=O)NCc3nc(C)no3)s2)cc1 [Compound 11, 5-(4-methylbenzene-1-sulfonyl)-N-[(3-methyl-1,2,4-oxadiazol-5-yl)methyl]thiophene-2-carboxamide]
2600	14	Cc1ccc(S(=O)(=O)c2ccc(C(=O)NCc3cc(C)no3)s2)cc1 [Compound 13, 5-(4-methylbenzene-1-sulfonyl)-N-[(3-methyl-1,2-oxazol-5-yl)methyl]thiophene-2-carboxamide]
3100	20	Cc1ccc(S(=O)(=O)c2ccc(C(=O)NCc3ncn(C)n3)s2)cc1 [Compound 15, 5-(4-methylbenzene-1-sulfonyl)-N-[(1-methyl-1H-1,2,4-triazol-3-yl)methyl]thiophene-2-carboxamide]
1700	24	Cc1ccc(S(=O)(=O)c2ccc(C(=O)NCc3cnc(C)nc3)s2)cc1 [Compound 17, 5-(4-methylbenzene-1-sulfonyl)-N-[(2-methylpyrimidin-5-yl)methyl]thiophene-2-carboxamide]
